Source: patent publication US20200170975A1 (Strongbridge Dublin Limited, priority 2018, published 2020)

Columns and labels:
OAT2 = target: T1, OAT2 (Homo sapiens, UniProt Q9Y694); assay: OAT2 inhibition: accumulation of [3H]-PGE2 in S2 cells; format: in vitro ADME
T1 construct: expressed in transfected cells; host or cells: S2 cells
T1 sequence (Q9Y694 1-548): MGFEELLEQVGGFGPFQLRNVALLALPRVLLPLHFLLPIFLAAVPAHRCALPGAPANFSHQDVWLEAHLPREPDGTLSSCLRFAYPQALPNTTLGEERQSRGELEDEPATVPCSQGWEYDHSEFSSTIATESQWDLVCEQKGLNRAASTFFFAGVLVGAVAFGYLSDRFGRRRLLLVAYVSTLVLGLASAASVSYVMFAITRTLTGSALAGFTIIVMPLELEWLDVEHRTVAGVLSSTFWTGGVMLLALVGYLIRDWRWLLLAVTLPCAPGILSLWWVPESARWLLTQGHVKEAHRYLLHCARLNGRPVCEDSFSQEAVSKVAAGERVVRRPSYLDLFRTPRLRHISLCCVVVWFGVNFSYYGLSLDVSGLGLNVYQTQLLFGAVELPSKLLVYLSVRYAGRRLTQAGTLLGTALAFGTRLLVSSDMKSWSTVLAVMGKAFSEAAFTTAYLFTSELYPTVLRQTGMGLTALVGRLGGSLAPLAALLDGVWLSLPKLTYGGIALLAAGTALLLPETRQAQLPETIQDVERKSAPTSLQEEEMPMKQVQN
Experimental: Schneider 2 (S2) cells are a commonly used Drosophila melanogaster cell lines from a primary culture of late stage (20-24 hours old) embryos from a macrophage-like lineage. S2 cells are used to express heterologous proteins, to produce proteins on a large scale, and to easily and transiently transfect with several plasmids at once to study protein interactions.
[^14C]-Metformin (1 mM) was provided as a solid and was prepared in Hank's balanced salt solution (HBSS).

[1] = cited from earlier work

For NS(=O)(=O)c1cc(Cl)c(Cl)c(S(N)(=O)=O)c1 [Dichlorphenamide, 4,5-dichloro-1,3-benzenedisulfonamide], the IC50 (OAT2) is given as greater than 1000 µM, the “solubility in dilute solutions of sodium carbonate and sodium hydroxide” value ([1]; dilute solutions of sodium carbonate and sodium hydroxide) is given as “soluble” and the “stability of dilute alkaline solutions” value ([1]; room temperature) is given as “stable”. For the same molecule, the solubility in water ([1]; water) was “very slightly soluble”.
